Data published in the supplement of paper PMC11208160.

Experiment: recombinant UMI read abundance after kanamycin selection (control-corrected) (log10(CPM+1)); higher = more efficient recombination; extreme values may be limits of the assay; sequences stand for … in AGTGCAGAGAAAATCGGCCAGTTTTCTCTGCCTGCAGTCCGCATGCCGTGGGACCCCTTGGGTTCTAACCTGTTGCCTAGATTTATGCAGCGGACTGCCTTTCTCCCAAAGTGATAAACCGG…AGGTTGGTTTCACT; site = the 11-nt donor
Method in brief: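 In Escherichia coli, a pool of donor and donor-binding-loop pairs, each with a 12-nt UMI, was tested for the IS621 bridge recombinase. Plating was on IPTG (0.07 mM) plus kanamycin, or without selection, in two replicates. Recombinant UMIs were amplified by PCR across the donor–target junction and sequenced, and counts were reported as log10(CPM+1) after averaging and control-derived scaling.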
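Also: IS621 bridge recombinase in Escherichia coli cells against a fixed T5 target plasmid.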

| Sequence | recombinant UMI read abundance (log10) |
| --- | --- |
| CTCCCTCCATGGACCGGTTTTCCCGGTAATCCGTATTTGAG (site CTCCCTGCTCT) | 0.009 |
| CTCCCTCCATGGACCGGTTTTCCCGGTAATCCGTATTTGAG (site CTCCCTTCTCT) | 0.0108 |
| CTCCTAACATGGACCGGTTTTCCCGGTAATCCGTATTTGGA (site CTACTAACTTC) | 0.00356 |
| CTCCTAACATGGACCGGTTTTCCCGGTAATCCGTATTTGGA (site CTCCTAACTTC) | 0.655 |
| CTCCTAACATGGACCGGTTTTCCCGGTAATCCGTATTTGGA (site CTGCTAACTTC) | 0.0178 |
| CTCCTAACATGGACCGGTTTTCCCGGTAATCCGTATTTGGA (site CTTCTAACTTC) | 0.0149 |
| CTCCTTACATGGACCGGTTTTCCCGGTAATCCGTATTTGAG (site CTCCATACTCT) | 0 |
| CTCCTTACATGGACCGGTTTTCCCGGTAATCCGTATTTGAG (site CTCCCTACTCT) | 0.00731 |
| CTCCTTACATGGACCGGTTTTCCCGGTAATCCGTATTTGAG (site CTCCGTACTCT) | 0 |
| CTCCTTACATGGACCGGTTTTCCCGGTAATCCGTATTTGAG (site CTCCTTACTCT) | 0.201 |
| CTCGACACATGGACCGGTTTTCCCGGTAATCCGTATTTGGA (site CTCGACACTTC) | 0.942 |
| CTCGCTACATGGACCGGTTTTCCCGGTAATCCGTATTTGAG (site CTCACTACTCT) | 0.085 |
| CTCGCTACATGGACCGGTTTTCCCGGTAATCCGTATTTGAG (site CTCCCTACTCT) | 0.00726 |
| CTCGCTACATGGACCGGTTTTCCCGGTAATCCGTATTTGAG (site CTCGCTACTCT) | 1.03 |
| CTCGCTACATGGACCGGTTTTCCCGGTAATCCGTATTTGAG (site CTCTCTACTCT) | 0.139 |
| CTCGGCCCATGGACCGGTTTTCCCGGTAATCCGTATTTGTT (site CACGGCCCTAA) | 0.0311 |
| CTCGGCCCATGGACCGGTTTTCCCGGTAATCCGTATTTGTT (site CCCGGCCCTAA) | 0.0244 |
| CTCGGCCCATGGACCGGTTTTCCCGGTAATCCGTATTTGTT (site CGCGGCCCTAA) | 0.0316 |
| CTCGGCCCATGGACCGGTTTTCCCGGTAATCCGTATTTGTT (site CTCGGCCCTAA) | 0.0107 |

| Sequence | recombinant UMI read abundance (log10) |
| --- | --- |
| CTCGGCGCATGGACCGGTTTTCCCGGTAATCCGTATTTGCC (site CTCGGCGCTGG) | 2.12 |
| CTCGGGCCATGGACCGGTTTTCCCGGTAATCCGTATTTGTG (site CTCGGGCCTCA) | 0 |
| CTCGTATCATGGACCGGTTTTCCCGGTAATCCGTATTTGTC (site CTAGTATCTGT) | 0 |
| CTCGTATCATGGACCGGTTTTCCCGGTAATCCGTATTTGTC (site CTCGTATCTGA) | 2.69 |
| CTCGTCCCATGGACCGGTTTTCCCGGTAATCCGTATTTGTA (site CTCGTCCCTTA) | 1.66 |
| CTCGTTACATGGACCGGTTTTCCCGGTAATCCGTATTTGTG (site CTCGTTACTCA) | 0.783 |
| CTCTACACATGGACCGGTTTTCCCGGTAATCCGTATTTGCG (site CTCTACACTAG) | 0.613 |
| CTCTACACATGGACCGGTTTTCCCGGTAATCCGTATTTGCG (site CTCTACACTCG) | 1.73 |
| CTCTACACATGGACCGGTTTTCCCGGTAATCCGTATTTGCG (site CTCTACACTGG) | 0.00583 |
| CTCTACACATGGACCGGTTTTCCCGGTAATCCGTATTTGCG (site CTCTACACTTG) | 0.829 |
| CTCTACGCATGGACCGGTTTTCCCGGTAATCCGTATTTGCT (site CTCTACACTAG) | 0.475 |
| CTCTACGCATGGACCGGTTTTCCCGGTAATCCGTATTTGCT (site CTCTACCCTAG) | 0 |
| CTCTACGCATGGACCGGTTTTCCCGGTAATCCGTATTTGCT (site CTCTACGCTAG) | 0.572 |
| CTCTACGCATGGACCGGTTTTCCCGGTAATCCGTATTTGCT (site CTCTACTCTAG) | 2.89 |
| CTCTCCTCATGGACCGGTTTTCCCGGTAATCCGTATTTGCC (site CACTCCTCTGG) | 2.68 |
| CTCTCCTCATGGACCGGTTTTCCCGGTAATCCGTATTTGCC (site CCCTCCTCTGG) | 2.6 |
| CTCTCCTCATGGACCGGTTTTCCCGGTAATCCGTATTTGCC (site CGCTCCTCTGG) | 2.57 |
| CTCTCCTCATGGACCGGTTTTCCCGGTAATCCGTATTTGCC (site CTCTCCTCTGG) | 2.63 |
